Values of other authors as cited in patent US6943197B2, “Topical administration of pharmacologically active bases in the treatment of inflammatory dermatoses” (priority 2002, dated 2005).
Where two headings read alike, the source gives them in different places.

How the values were obtained:
[1] = for pH of Aqueous Solution (alkalinity in words): no concentration, result in words
[2] = forms Ca(OH)2

Row | Compound | pH of Aqueous Solution ([1]; concentration not given) | other results
1 | O.O.O.O.O.O.O.O.O.O.O.O.O=P([O-])([O-])O.[Na+].[Na+] [Sodium phosphate, dibasic, dodecahydrate] | ˜9.5 | 
2 | [O]=[Ca] [Calcium oxide] |  | Solubility in water [2]: Soluble in water, Form
3 | O=P([O-])([O-])O.[Na+].[Na+] [Sodium phosphate, dibasic] | ˜9.5 | 
4 | O.O.O.O.O.O.O.O=P([O-])([O-])O.[Na+].[Na+] [Sodium phosphate, dibasic, heptahydrate] | ˜9.5 | 
5 | O=B[O-].[Na+] [Sodium metaborate] |  | pH of Aqueous Solution (alkalinity in words) [1]: Strongly alkaline
6 | O=C([O-])CC(O)(CC(=O)[O-])C(=O)[O-].[K+].[K+].[K+] [Potassium citrate] | ˜8.5 | 
7 | O=C([O-])[O-].[Na+].[Na+] [Sodium carbonate anhydrous] | ˜11.6 | 
8 | O.O.O=P([O-])([O-])O.[Na+].[Na+] [Sodium phosphate, dibasic, dihydrate] | ˜9.5 | 
9 | N.N.O=P(O)(O)O [Ammonium phosphate, dibasic] | ˜8 | 
10 | O.O.O.O.O.O.O.O.O.O.O.O.O=P([O-])([O-])[O-].[Na+].[Na+].[Na+] [Sodium phosphate, tribasic dodecahydrate] |  | pH of Aqueous Solution ([1]; 1.0% (1%)): 11.9 (1.0%)
11 | CC(=O)[O-].O.O.O.[Na+] [Sodium acetate, tribydrate] |  | pH of Aqueous Solution ([1]; 0.1 N): 8.9 (0.1 N)
12 | [O]=[Mg] [Magnesium oxide] |  | pH of Aqueous Solution ([1]; saturated solution in water): 10.3
13 | CC(=O)[O-].[Na+] [Sodium acetate, anhydrous] |  | pH of Aqueous Solution ([1]; 0.1 N): ˜8.9 (0.1 N)
14 | O=P([O-])([O-])O.[K+].[K+] [Potassium phosphate, dibasic] |  | pH of Aqueous Solution (alkalinity in words) [1]: Aqueous solution is slightly
